By IC50 is commonly meant the concentration that gives 50% inhibition.

Assay [1] addresses T1, Aurora A kinase (Homo sapiens, UniProt O14965).
T1 construct: purchased Upstate Biotech
T1 sequence (O14965 1-403): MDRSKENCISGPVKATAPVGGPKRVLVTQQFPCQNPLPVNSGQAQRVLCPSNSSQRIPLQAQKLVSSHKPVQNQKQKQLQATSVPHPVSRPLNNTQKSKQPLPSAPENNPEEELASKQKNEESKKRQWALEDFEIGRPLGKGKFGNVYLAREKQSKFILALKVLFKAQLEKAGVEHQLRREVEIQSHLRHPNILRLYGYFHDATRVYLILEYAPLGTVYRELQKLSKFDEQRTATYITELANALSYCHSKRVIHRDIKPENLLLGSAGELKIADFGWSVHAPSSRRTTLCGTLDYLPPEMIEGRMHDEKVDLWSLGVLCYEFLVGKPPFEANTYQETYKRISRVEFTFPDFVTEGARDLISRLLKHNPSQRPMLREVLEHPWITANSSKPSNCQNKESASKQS
Description: Aurora A kinase assay (IMAP fluorescence polarization). In kind it is biochemical. The settings on record: 10 μM ATP; rounded to 1 significant figure; read-out: Aur-A IC50. The method in brief: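 Compounds (eight 3-fold dilutions, 2.5% DMSO final) were preincubated 5 min at room temperature with Aurora A kinase in buffer with 1 mM DTT. Reaction with 100 nM fluorescein-PKAtide and 10 μM ATP ran 45 min at room temperature, then was stopped with IMAP binding reagent; fluorescence polarization was read after 30 min.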
A general note: Fluorescence polarisation rises when a labelled molecule tumbles more slowly, as on binding a larger partner.

The test system of assay [2] is HCT116 (human colon carcinoma) cells. As to the kind of experiment: HCT116 cytotoxicity assay (CellTiter-Glo). In kind it is cell-based. The settings on record: HCT-116, 72 h, cytotoxicity, three days culture, read-out: HCT116 IC50.
The target in assay [3] is T2, Aurora B kinase (Homo sapiens, UniProt Q96GD4).
T2 construct: purchased BPS Bioscience
T2 sequence (Q96GD4 whole entry): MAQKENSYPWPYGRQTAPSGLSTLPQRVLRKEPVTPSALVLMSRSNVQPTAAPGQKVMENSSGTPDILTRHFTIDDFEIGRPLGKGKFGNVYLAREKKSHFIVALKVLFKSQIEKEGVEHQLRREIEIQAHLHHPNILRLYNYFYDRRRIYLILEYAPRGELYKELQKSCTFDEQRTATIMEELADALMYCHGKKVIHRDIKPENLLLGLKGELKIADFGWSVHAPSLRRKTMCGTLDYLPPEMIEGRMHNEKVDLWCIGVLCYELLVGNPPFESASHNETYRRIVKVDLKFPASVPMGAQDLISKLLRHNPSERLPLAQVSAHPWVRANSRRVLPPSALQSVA
As to the kind of experiment: Aurora B kinase assay (IMAP fluorescence polarization). The settings on record: 10 μM ATP; rounded to 1 significant figure; read-out: Aur-B IC50. In kind it is biochemical. The gist of the method: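 Reaction started with 100 nM fluorescein-labelled PKAtide and 10 μM ATP, run 45 min at room temperature, then stopped with IMAP binding reagent (1:400). After 30 min shaking at room temperature, fluorescence polarization read; run in duplicate with solvent control.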

For assay [4], the system named is HL60 (human promyelocytic leukemia) cells. Description: HL60 cytotoxicity assay (CellTiter-Glo). Particulars: HL-60, 72 h, cytotoxicity, three days culture, read-out: HL60 IC50. It is filed as cell-based. From the text:
(§1) The cell lines HL60 (human promyelocytic leukemia) and HCT116 (human colon carcinoma) were obtained from the American Type Culture Collection, Manassas, Va., U.S.A., and HUVEC-2 (human umbilical vein endothelial cells) from BD Biosciences, Bedford, Mass., U.S.A. Aurora A kinase was obtained from Upstate Biotech, Billerica, Mass., U.S.A.; Aurora B kinase from BPS Bioscience, San Diego, Calif., U.S.A.; and VEGFR2 kinase from Cell Signaling Technology, Danvers, Mass., U.S.A. The IMAP FP Screening Express kit was obtained from Molecular Devices, Sunnyvale, Calif., U.S.A.; the CellTiter-Glo assay kit from Promega Corporation, Madison, Wis., U.S.A.; and the Cellular DNA Cytometric Analysis Reagent Kit and BrdU labeling and detection kit from Roche Diagnostics Corporation, Indianapolis, Ind., U.S.A. All products were used in accordance with manufacturer's directions. Kinase inhibition assays and the histone phosphorylation (p-H3) assay were conducted in duplicate, and the cytotoxicity and HUVEC proliferation assays were conducted in triplicate, in each case with solvent control.
Log-phase cells were trypsinized, collected by centrifugation, and resuspended in a small volume of fresh medium, and the density of viable cells was determined following Trypan Blue staining. Cells were diluted in fresh media (1×10^4 cells/mL for HL60 and 4×10^4 cells/mL for HCT116 cells), the test compounds (concentrations between 0.1 μM and 200 μM, dissolved in DMSO, 50 μL) added immediately after dilution to achieve a final DMSO concentration of 0.5%, then the suspensions added at 150 μL/well to 96-well plates, and incubated overnight to allow attachment in the case of adherent cells. The cells were cultured for three days (about three doubling times). The cells were then collected by centrifugation, and 100 μL of the culture supernatant was replaced by the CellTiter-Glo reagent. After incubation for 15 minutes at room temperature, the plate was read with a luminometer.
(ATP-based viability assays read luminescence as a measure of living cells.)

Assay [5] deals with p-H3 in HCT116 cells. Description: Histone phosphorylation (p-H3) assay. In kind it is cell-based. The settings on record: Homo sapiens, HCT-116; HCT116 cells, 4 hr incubation; read-out: p-H3 IC50. The gist of the method: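 HCT116 cells (2.5×10^4/well, attached overnight) treated 4 h with 8-point 3-fold compound dilutions at 0.5% DMSO. Lysates dot-blotted onto nitrocellulose and probed for p-H3 with β-actin on the same membrane, fluorescent secondary antibodies, Odyssey scan; duplicate wells.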

For assay [6], the system named is HUVEC-2 (human umbilical vein endothelial cells). Description: HUVEC VEGF-dependent proliferation assay (BrdU). It is filed as cell-based. Particulars: VEGF (25 ng/mL)-dependent proliferation, read-out: HUVEC IC50.
Excerpt: as §1
HUVEC-2 cells were seeded at 10^4 cells/well in a 96-well plate coated with 0.1% gelatin in complete medium. […] The compounds were serially diluted in DMSO, and added to the cells at 0.5% DMSO final concentration. After 2 hr, VEGF (25 ng/mL) was added; and after a further day, 5-bromo-2-deoxyuridine (BrdU, 10 μM) was added to label proliferating cells, and the cells incubated for another day. The plates were then processed using the Roche BrdU labeling and detection kit, and the VEGF-dependent antiproliferative activity of the compounds determined.

The target in assay [7] is T3, VEGFR2 kinase (Homo sapiens, UniProt P35968).
T3 construct: purchased Cell Signaling Technology
T3 sequence (P35968 20-1356): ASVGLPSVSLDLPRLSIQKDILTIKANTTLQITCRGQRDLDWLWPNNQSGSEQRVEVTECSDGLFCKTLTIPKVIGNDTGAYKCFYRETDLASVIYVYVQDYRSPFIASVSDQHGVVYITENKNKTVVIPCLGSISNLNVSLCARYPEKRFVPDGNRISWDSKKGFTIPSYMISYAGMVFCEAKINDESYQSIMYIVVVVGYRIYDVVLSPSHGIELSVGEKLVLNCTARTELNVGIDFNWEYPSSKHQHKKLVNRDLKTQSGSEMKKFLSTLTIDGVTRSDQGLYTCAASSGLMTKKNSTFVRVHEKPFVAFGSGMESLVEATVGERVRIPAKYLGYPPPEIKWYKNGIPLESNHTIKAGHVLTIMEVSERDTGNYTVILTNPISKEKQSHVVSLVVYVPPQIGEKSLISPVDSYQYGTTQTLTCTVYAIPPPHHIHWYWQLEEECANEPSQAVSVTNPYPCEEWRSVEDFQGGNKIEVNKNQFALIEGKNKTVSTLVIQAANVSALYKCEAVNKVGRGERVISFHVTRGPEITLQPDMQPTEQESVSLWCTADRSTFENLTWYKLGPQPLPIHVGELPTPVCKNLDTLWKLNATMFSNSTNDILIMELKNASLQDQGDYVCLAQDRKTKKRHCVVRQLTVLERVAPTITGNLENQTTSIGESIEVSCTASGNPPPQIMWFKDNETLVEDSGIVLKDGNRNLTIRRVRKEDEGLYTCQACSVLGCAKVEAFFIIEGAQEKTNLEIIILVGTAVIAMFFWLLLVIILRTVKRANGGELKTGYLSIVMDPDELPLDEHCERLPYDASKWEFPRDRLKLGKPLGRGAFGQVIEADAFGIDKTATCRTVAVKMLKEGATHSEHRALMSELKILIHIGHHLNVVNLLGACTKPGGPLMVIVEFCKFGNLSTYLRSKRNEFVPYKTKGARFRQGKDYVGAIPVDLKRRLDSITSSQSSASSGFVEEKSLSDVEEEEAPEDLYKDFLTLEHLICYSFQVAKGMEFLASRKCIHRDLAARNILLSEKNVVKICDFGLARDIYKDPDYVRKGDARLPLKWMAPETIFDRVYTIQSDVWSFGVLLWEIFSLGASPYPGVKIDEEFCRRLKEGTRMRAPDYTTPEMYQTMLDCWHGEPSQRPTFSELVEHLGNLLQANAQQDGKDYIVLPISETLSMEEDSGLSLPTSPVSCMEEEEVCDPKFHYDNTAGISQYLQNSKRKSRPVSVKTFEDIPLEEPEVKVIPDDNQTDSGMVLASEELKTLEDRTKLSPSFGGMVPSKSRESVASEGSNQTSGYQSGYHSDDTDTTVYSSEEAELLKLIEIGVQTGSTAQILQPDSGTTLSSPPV
Description: VEGFR2 kinase assay. Particulars: 6 μM ATP, 1 mM MnCl2; rounded to 1 significant figure. In kind it is biochemical. The method in brief: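 VEGFR2 phosphorylates CSKtide with 6 μM ATP and 1 mM MnCl2 for 1 hr, otherwise following the Aurora A kinase protocol. Detection by IMAP fluorescence polarization, binding reagent diluted 1:1200 in 1:1 binding buffer A/B. Run in duplicate with solvent control.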

Take `Cc1cc(C(F)(F)F)nc(C(C(N)=O)=C2Nc3ccc(NC(=O)[C@@H]4CCCN4C)cc3N2)n1` (single isomer, unassigned) [Compound 144A]: the IC50 in assay [1] came out at 5 nM; in assay [2], 400 nM; in assay [3], 6 nM; in assay [4], 500 nM; in assay [5], 100 nM.

On to `NC(=O)/C(=C1\Nc2ccc(OCCCN3CCOCC3)cc2S1)c1nccc(C(F)(F)F)n1` [Compound 113A], for which the half-inhibitory concentration (IC50) is 200 nM in assay [6]; 30 nM in assay [1]; 40 nM in assay [7]; 600 nM in assay [2]; 20 nM in assay [3]; 400 nM in assay [5].

For the molecule `CN1CCN(CCOc2ccc3c(c2)S/C(=C(/C(N)=O)c2nccc(C(F)(F)F)n2)N3)CC1` [Compound 114A], the IC50 amounted to 40 nM in assay [6]; 40 nM in assay [1]; 40 nM in assay [7]; 600 nM in assay [2]; 20 nM in assay [3]; 50 nM in assay [5].

Regarding `CN1CCN(CCCOc2ccc3c(c2)S/C(=C(/C(N)=O)c2nccc(C(F)(F)F)n2)N3)CC1` [Compound 115A], the IC50 was 100 nM in assay [6]; 40 nM in assay [1]; 20 nM in assay [7]; 100 nM in assay [2]; 30 nM in assay [3]; 200 nM in assay [5].

On to `CN(C)CCOc1ccc2c(c1)S/C(=C(/C(N)=O)c1nccc(C(F)(F)F)n1)N2` [Compound 116A], for which the IC50 is 100 nM in assay [6]; 40 nM in assay [1]; 9 nM in assay [7]; 400 nM in assay [2]; 8 nM in assay [3]; 80 nM in assay [5].

On to `CN1CCN(c2ccc3c(c2)N/C(=C(/C(N)=O)c2nccc(C(F)(F)F)n2)N3)CC1` [Compound 119A], for which the IC50 in assay [6] amounted to 200 nM; in assay [1], 9 nM; in assay [7], 6 nM; in assay [2] it was 1000 nM; in assay [3] it was 6 nM; in assay [5] it was 200 nM.

Turning to `CN1CCN(c2ccc3c(c2)S/C(=C(/C(N)=O)c2nccc(C(F)(F)F)n2)N3)CC1` [Compound 120A], the IC50 worked out at 2000 nM in assay [6]; 30 nM in assay [1]; 2 nM in assay [7]; 2000 nM in assay [2]; 9 nM in assay [3]; 500 nM in assay [5].

As for `NC(=O)/C(=C1\Nc2ccc(N3CCC(N4CCCCC4)CC3)cc2S1)c1nccc(C(F)(F)F)n1` [Compound 121A], the concentration for half-maximal inhibition (IC50) came out at 900 nM in assay [6]; 30 nM in assay [1]; 20 nM in assay [7]; 1000 nM in assay [2]; 8 nM in assay [3]; 90 nM in assay [5].

Regarding `NC(=O)/C(=C1\Nc2ccc(N3CCC(N4CCOCC4)CC3)cc2S1)c1nccc(C(F)(F)F)n1` [Compound 122A], the half-maximal inhibitory concentration (IC50) in assay [6] turned out to be 7000 nM; in assay [1] it was 20 nM; in assay [7] it was 20 nM; in assay [2], 4000 nM; in assay [3], 9 nM; in assay [5], 400 nM.

`CN(CCN1CCCCC1)c1ccc2c(c1)S/C(=C(/C(N)=O)c1nccc(C(F)(F)F)n1)N2` [Compound 125A]: the concentration for half-maximal inhibition (IC50) in assay [6] amounted to 600 nM; in assay [1] it was 30 nM; in assay [7] it was 20 nM; in assay [2], 3000 nM; in assay [3], 10 nM; in assay [5], 200 nM.

For the molecule `CN1CCN(S(=O)(=O)c2ccc3c(c2)S/C(=C(/C(N)=O)c2nccc(C(F)(F)F)n2)N3)CC1` [Compound 126A], the half-inhibitory concentration (IC50) in assay [6] is 30 nM; in assay [1] it was 20 nM; in assay [7], 70 nM; in assay [2], 2000 nM; in assay [3] it was 20 nM; in assay [5] it was 2000 nM.

On to `NC(=O)/C(=C1\Nc2ccc(S(=O)(=O)NCCN3CCOCC3)cc2S1)c1nccc(C(F)(F)F)n1` [Compound 128A], for which the IC50 in assay [6] turned out to be 60 nM; in assay [1], 10 nM; in assay [7] it was 60 nM; in assay [2], 900 nM; in assay [3], 20 nM; in assay [5], 600 nM.

As for `NC(=O)/C(=C1\Nc2ccc(S(=O)(=O)N3CCNCC3)cc2S1)c1nccc(C(F)(F)F)n1` [Compound 129A], the concentration for half-maximal inhibition (IC50) in assay [6] turned out to be 300 nM; in assay [1] it was 30 nM; in assay [7], 100 nM; in assay [2], 1000 nM; in assay [3], 10 nM; in assay [5], 1000 nM.

As to `NC(=O)/C(=C1\Nc2ccccc2S1)c1ncc(C(=O)NCCCN2CCOCC2)c(C(F)(F)F)n1` [Compound 131A], the half-maximal inhibitory concentration (IC50) was 800 nM in assay [6]; 90 nM in assay [1]; 200 nM in assay [7]; 2000 nM in assay [2]; 60 nM in assay [3]; 900 nM in assay [5].

As for `NC(=O)C(=C1Nc2ccccc2N1)c1ncc(C(=O)NCCCN2CCOCC2)c(C(F)(F)F)n1` [Compound 132A], the 50% inhibitory concentration (IC50) in assay [6] was 600 nM; in assay [1], 60 nM; in assay [7], 100 nM; in assay [2], 1000 nM; in assay [3] it was 20 nM; in assay [5], 2000 nM.

For `Cc1cc2c(cc1C)NC(=C(C(N)=O)c1ncc(C(=O)NCCCN3CCOCC3)c(C(F)(F)F)n1)N2` [Compound 133A], the concentration for half-maximal inhibition (IC50) in assay [6] was 200 nM; in assay [1], 40 nM; in assay [7] it was 60 nM; in assay [2], 800 nM; in assay [3], 10 nM; in assay [5] it was 300 nM.

Take `NC(=O)/C(=C1\Nc2ccccc2S1)c1ncc(C(=O)NCCN2CCOCC2)c(C(F)(F)F)n1` [Compound 134A]: the IC50 in assay [6] came out at 600 nM; in assay [1] it was 50 nM; in assay [7] it was 80 nM; in assay [2] it was 4000 nM; in assay [3] it was 10 nM; in assay [5], 400 nM.

For the molecule `NC(=O)C(=C1Nc2ccccc2N1)c1ncc(C(=O)NCCN2CCOCC2)c(C(F)(F)F)n1` [Compound 135A], the IC50 in assay [6] was 600 nM; in assay [1], 30 nM; in assay [7], 100 nM; in assay [2], 4000 nM; in assay [3] it was 20 nM; in assay [5], 500 nM.

These data come from patent US8129396B2, “2-[1H-benzimidazol-2(3H)-ylidene]-2-(pyrimidin-2-yl)acetamides and 2-[benzothiazol-2(3H)-ylidene]-2-(pyrimidin-2-yl)acetamides as kinase inhibitors” (Telik, Inc., priority 2008, dated 2012).
